Results on 2 compounds are retold here after article PMC10743653, “Combined In Silico and In Vitro Analyses to Assess the Anticancer Potential of Thiazolidinedione–Thiosemicarbazone Hybrid Molecules” (International Journal of Molecular Sciences, 2023).

Broadly, the IC50 is the midpoint of a concentration-inhibition curve. A higher IC50 goes with weaker potency in that assay.

The subject of experiment [1] is HT29 cells. Put plainly: MTT assay, HT29. Format: cell-based, human. As to conditions: for IC50: Homo sapiens, HT-29, HT29, MTT, 24 h treatment, mean ± SD; for SI (selectivity index): IC50 CCD 841 CoTr divided by IC50 HT29. Here is the method: (§1) The effects of TZD–TSCs 2–5 on the cellular viability of a panel of cell lines were investigated through an 3-(4,5-dimethylthiazol-2-yl)-2,5-diphenyl-2H-tetrazolium bromide (MTT) assay, following a 24 h treatment with the compounds. The panel consisted of three solid tumor cells: T98G (glioblastoma multiforme), HepG2 (hepatocellular carcinoma, epithelial), and HT29 (colon adenocarcinoma, epithelial), as well as noncancerous cells CCD 841 CoTr (normal colon, epithelial).
(§2) Primary single dose screenings of TZD–TSCs 2–5 were performed at a concentration of 200 μg/mL, and those that elicited a greater than 80% inhibition of cell proliferation were analyzed at several concentrations, to find their half-maximal inhibitory concentration (IC50). The IC50 values, reported as the mean ± SD in Table 2, indicate the concentration of the tested compound that inhibits the growth/viability of the cancer cell population by 50%. In this specific case of an MTT assay, which measures the activity of mitochondrial dehydrogenases (as an indicator of cell viability), the IC50 values stand for the concentration that inhibits the metabolic activity of cells by 50%.
(§3) Human colon adenocarcinoma cells, HT29 (ATCC no. HTB-38), derived from a grade I tumor, were cultured in roswell park memorial institute Medium (RPMI) 1640 medium, supplemented with 10% fetal calf serum (FCS) (GibcoTM, Paisley, UK) and antibiotics (100 U/mL penicillin and 100 μg/mL streptomycin) (Sigma, St. Louis, MO), at 37 °C in a humidified atmosphere with 5% CO2. Human normal colon epithelial cells, CCD 841 CoTr (ATCC no. CRL-1807), were cultured in RPMI 1640 + dulbecco’s modified eagle medium (DMEM) (1:1) medium (Sigma, St. Louis, MO), supplemented with 10% FCS and antibiotics, at 34 °C in a 5% CO2/95% air atmosphere. Human glioblastoma T98G cells were cultured in Dulbecco’s Modified Eagle’s Medium (DMEM) (Sigma Aldrich, St. Louis, MO, USA), supplemented with 10% fetal bovine serum (FBS), penicillin (100 U/mL), and streptomycin (100 μg/mL). Human hepatocellular carcinoma cells, HepG2, were maintained in Eagle’s Minimum Essential Medium, supplemented with 10% FBS, penicillin (100 U/mL), and streptomycin (100 μg/mL).
(§4) After 24 h of incubation of the cells with the tested compounds in 100 μL of culture medium, MTT solution (5 mg/mL, 25 μL/well) was added and incubated for an additional 3 h. The purple crystals of formazan which formed in the medium were solubilized overnight in 10% sodium dodecyl sulphate (SDS) in a 0.01 M HCl mixture. The product was quantified spectrophotometrically by measuring its absorbance at 570 nm using an Emax Microplate Reader (Molecular Devices Corporation, Menlo Park, CA, USA).
On the technique in general: Tetrazolium dyes change colour on reduction, which living cells bring about.

The subject of experiment [2] is HepG2 cells. As to the kind of experiment: Cell migration (wound healing) assay, HepG2. The settings on record: HepG2, IC50 doses (2: 10.39 μM; 3: 2.97 μM), 24 h. Format: cell-based, human. Here is the method:
The possible anti-migratory effect of 2 and 3 was examined against HepG2 and T98G cells, which most effectively responded to TZD–TSC treatment. The ability of cells to cover the scratched area was monitored after 24 h of incubation with compounds 2 and 3. […] Thus, we can conclude that the anticancer potential of the investigated compounds is enriched by their anti-metastatic effect.
Cell migration ability was evaluated according to a wound healing assay. On the day of the experiment, HepG2 and T98G cells were collected from monolayers using trypsin/EDTA and seeded on 6-well plates at a density of 1 × 10^5 cells mL^−1. After 24 h, when the confluence of cells reached about 80%, a vertical linear scratch was created in the monolayer with a sterile pipette tip. The cells were washed three times with a phosphate-buffered saline (PBS) to remove all cellular debris. […] The open wound area was measured with the NIH ImageJ software version 1.53t (Bethesda, Rockville, MD, USA). The percentage of wound closure was calculated using the following formula [81]: Wound closure (%)=open wound area at 0 h −open wound area at 24 h or 48 h/open wound area at 0 h×100%

The subject of experiment [3] is T98G cells. As to the kind of experiment: MTT assay, T98G. Format: cell-based, human. As to conditions: for IC50: Homo sapiens, T98G, MTT, 24 h treatment, mean ± SD; for SI (selectivity index): IC50 CCD 841 CoTr divided by IC50 T98G. The protocol:
as §1, §2, §3, §4

A short description of experiment [4]: Ferric-reducing antioxidant power (FRAP) assay. An excerpt: Antioxidant activity is a complex procedure, usually happening through several multiple or predominant chemical mechanisms (i.e., hydrogen atom transfer (HAT), single electron transfer (SET), and the ability to chelate transition metals), and it is influenced by many factors, which cannot be fully described with one single method. Therefore, it is important to perform more than one type of measurement to take into account the various mechanisms of antioxidant action. In this study, to assess the antioxidant activity of TZD–TSCs 2–5, two complementary tests were used: a DPPH (2,2-diphenyl-1-picrylhydrazyl) free radical-scavenging ability assay, that detects the HAT and SET mechanisms, and a FRAP (ferric reducing antioxidant power) assay, that prefers the […] mechanism. The antioxidant powers of 2–5 were compared to standard antioxidants, such as the water-soluble synthetic analogue of vitamin E (Trolox) and ascorbic acid (vitamin C).
Each compound concentration (25, 75, 150, and 200 μg/mL, respectively) was dissolved in Milli-Q water and mixed with an equal volume of 0.2 M sodium phosphate buffer (pH 6.6) and 1% potassium ferricyanide. The mixture was incubated for 30 min at 37 °C. Thereafter, 10% trichloroacetic acid (w/v) was added and the mixture was centrifuged at 1000 g for 5 min. One mL of the upper layer was mixed with an equal volume of Milli-Q water and 0.1% ferric chloride. The absorbance was read at 700 nm using an EL800 Universal Microplate Reader (BioTek Instruments, Winooski, VT, USA). Ascorbic acid (0–150 μg/mL) was used as a positive control.

For `O=C(C=C1SC(=O)NC1=O)Oc1ccccc1C=NNC(=S)Nc1ccccc1Cl` [TZD–TSC 2], the figures for the half-maximal inhibitory concentration (IC50) in experiment [1] and in experiment [3] were 43.9 ± 1.74 µM and 26.8 ± 1.54 µM, respectively. For the same compound, the “SI (selectivity index)” value in experiment [1] turned out to be 1.02; in experiment [3] it was 1.66. For the same compound, the “Migration of cancer cells (wound healing)” value in experiment [2] is recorded as “almost completely suppressed”. Moreover, the “FRAP reduction value corresponding to concentration of ascorbic acid” value in experiment [4] (compound at 25 μg/mL) amounted to 2.43 µg/mL; in experiment [4] (compound at 75 μg/mL), 4.32 µg/mL; in experiment [4] (compound at 150 μg/mL), 3.51 µg/mL; in experiment [4] (compound at 200 μg/mL), 7.84 µg/mL.

Turning to `O=C(C=C1SC(=O)NC1=O)Oc1ccccc1C=NNC(=S)Nc1cccc(Cl)c1` [TZD–TSC 3], the half-inhibitory concentration (IC50) turned out to be 78.3 ± 5.47 µM in experiment [1] and 28.3 ± 2.21 µM in experiment [3]. In addition, the “SI (selectivity index)” value in experiment [1] is 1.28; in experiment [3] it was 3.54. For the same compound, in experiment [2], the “Migration of cancer cells (wound healing)” value is given as “almost completely suppressed”. For the same compound, the “FRAP reduction value corresponding to concentration of ascorbic acid” value in experiment [4] (compound at 25 μg/mL) was 0.81 µg/mL; in experiment [4] (compound at 75 μg/mL), 0.27 µg/mL; in experiment [4] (compound at 150 μg/mL) it was 1.08 µg/mL; in experiment [4] (compound at 200 μg/mL), 1.89 µg/mL.
